Assay results from patent publication US5385918A, “Aminomethylene-peptides as immunosuppressants” (Miles Inc., priority 1993, dated 1995).

Experiments:
human T-cells = assay: Suppression of Human T-Cell Proliferation Assay (PHA-stimulated, [3H]-thymidine incorporation); format: cell-based; settings: inhibition of [3H]-thymidine incorporation of PHA-stimulated purified human T-cells, 72 hours
Excerpt: Inhibition of mitogen-induced T-cell proliferation can be used to profile immunosuppressive activity of test compounds. In the description of the assay which follows, mitogen-induced T-cell proliferation was used to test the inhibitory potencies of select compounds of the present invention.
In an assay similar to that described by Bradley in Mishell et al. (Eds.), 1980, Selected Methods in Cellular Immunology, pp 156-161, W. H. Freeman & Co., San Fransisco, Calif., T-cells were stimulated by incubation with phytohemagglutinin (PHA) which binds to cell surface molecules, including the T-cell receptor. This stimulation results in proliferation which can be measured by incorporation of [^3 H]-thymidine into cellular DNA.
Fresh LeukoPaks were obtained from the New York Blood Center, New York, N.Y. The cells, including erythrocytes and leukocytes, were diluted with Hank's Balanced Salt Solution (HBSS) (GIBCO, Grand Island, N.Y.) and layered over Lymphoprep (Nycomed Pharma AS, Oslo, Norway) in sterile 50 ml conical centrifuge tubes. Lymphocytes were isolated at the Hank's/Nycomed interface after centrifugation at 2000×g, 4° C. for 15 min. The lymphocytes were washed with Minimal Essential Medium (GIBCO) containing 2% fetal bovine serum (FBS) (Sigma Chemical Co., St. Louis, Mo.), 1% HEPES buffer (GIBCO) and 1% Penicillin-Stretomycin solution (GIBCO).
T-cells were further purified essentially by sheep erythrocyte (SRBC) rosetting as described by Morimoto et al., 1983, J. Immunol. 130:157. The isolated lymphocytes were adjusted to 2×10^7 cells/ml and 5 ml aliquots of the cell suspension were incubated for 10 minutes at room temperature with 5 ml of a 5% SRBC (Cappel, Organon Technika Corp., West Chester, Pa.) suspension. The cells were gently pelleted by centrifugation at 300 rpm for 10 minutes, followed by a 1 hour incubation at room temperature to allow rosette formation. The cells were gently resuspended,layered over Lymphoprep and centrifuged for 30 minutes at 500×g. The pellet, containing rosetted T-cells and SRBC was treated with ice cold buffered ammonium chloride (GIBCO) to lyse the erythrocytes. T-cells were washed twice with HBSS.
Purified T-cells were resuspended at 2×10^6 cells/ml in complete culture medium composed of RPMI-1640 (Whittaker Bioproducts, Walkerville, Md.) with 10% FBS (Sigma), 2 mM L-glutamine (GIBCO), 1% Penicillin-Streptomycin (GIBCO) and 15 mM HEPES (GIBCO). In 96-well plates (Becton Dickinson, Lincoln Park, N.J.), 0.1 ml aliquots of T-cell suspension were mixed with 0.05 ml of 40 μg/ml PHA-M (Sigma). The compounds of this invention were dissolved in dimethylsulfoxide at 10 mM and various dilutions in complete medium were added in duplicate wells (0.05 ml/well). The plates were incubated at 37° C. in a humidified atmosphere of 5% carbon dioxide and 95% air for 72 hours.
Proliferation was assessed by measurement of [^3 H]-thymidine incorporation. During the last 6 hours of incubation, the cells were pulse labelled with 1 μCi/well of [^3 H]-thymidine (New England Nuclear, Boston, Mass.). The cells were harvested onto glass fiber paper using a plate harvester and the radioactivity incorporated into cellular DNA corresponding to individual wells was measured by standard liquid scintillation counting methods. The mean counts per minute (CPM) of replicate wells was calculated and linear regression analysis of mean CPM versus compound concentration was used to determine the concentration of compound which would inhibit [^3 H]-thymidine incorporation of T-cells by 50% (IC50).

FKBP = FKBP (Homo sapiens, UniProt P62942); assay: PPIase Inhibition Assay; format: biochemical; settings: inhibition of PPIase activity of FKBP, substrate Succinyl-Ala-Phe-Pro-Phe-para-nitroanilide
Description: This assay follows in principle the procedure described in Kofron et al., 1991, Biochemistry 30:6127. The three main reagents used are PPIase, a substrate for PPIase, and a selected inhibitor compound of the present invention. The basic principle behind this assay is the conversion of the cis isomer of the substrate to the trans form, which conversion is catalyzed by PPIase. Essentially, inhibition of this PPIase activity is measured for the selected compounds. A peptide chymotrypsin substrate containing a proline in the P2 position is only cleaved by chymotrypsin when the Phe-Pro bond is in the trans isomeric configuration. In the presence of excess chymotrypsin, all of the trans peptide isomers are cleaved within approximately five seconds, leaving only cis forms.
The cis peptide will spontaneously convert to the trans isomer at a slow rate. The cis to trans conversion is catalyzed by isomerases at a much faster rate than this spontaneous conversion. Proteins with PPIase activity are examples of such isomerases. After isomerization, the peptide is cleaved by chymotrypsin releasing p-nitroaniline which can be monitored at 390 nm. The rate of release is then calculated using a first order rate plus offset equation utilizing the ENZFITTER program (Leatherbarrow, BIOSOFT, Cambridge, United Kingdom).
In a plastic cuvette are added 950 ul of ice cold assay buffer (25 mM HEPES, pH 7.8, 100 mM NaCl), 10 uL of FKBP (2.5 uM in 10 mM Tris-Cl pH 7.5, 100 mM NaCl, 1 mM dithiothreitol), 25 ul of chymotrypsin (50 mg/ml in 1 mM HCl) and 10 ul of the test compound at various concentrations in dimethyl sulphoxide. The reaction is initiated by addition of 5 ul of substrate (Succinyl-Ala-Phe-Pro-Phe-para-nitroanilide, 5 mg/ml in 235 mM LiCl in trifluoroethanol).
The absorbance at 390 nm versus time is monitored for 90 sec using a Beckman DU70 spectrophotometer. The absorbance versus time data files are transferred to an IBM XT computer and the rate constants determined using the commercial Enzfitter program. For each set of data, the uncatalyzed rate of conversion is measured and the uninhibited enzymatic rate determined. The data are expressed as % Inhibition and are calculated as follows: [formula] where kobs is the rate in the presence of a selected test compound, kuncat is the rate in the absence of enzyme, and kuninh is the rate in the presence of enzyme and absence of inhibitor. Data are plotted as percent inhibition versus concentration of inhibitor. The values of the concentration of inhibitor required for 50% inhibition of enzyme activity (IC50) were determined by nonlinear least squares regression analysis.

Sequence of FKBP (P62942 whole entry): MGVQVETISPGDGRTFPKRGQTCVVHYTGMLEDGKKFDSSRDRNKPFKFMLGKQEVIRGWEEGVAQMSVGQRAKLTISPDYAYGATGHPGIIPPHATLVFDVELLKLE

Structure (SMILES)	IC50 (human T-cells)	IC50 (FKBP)
CC[C@H](C)[C@H](NC(=O)[C@@H]1CCCCN1C[C@@H](NC(=O)CC(C)C)[C@@H](C)CC)C(=O)NCc1ccccc1 [Example 23, 1-[1-[2-(S)-[(3-methyl-butyryl)-amino]-3-(S)-methylpentyl]-L-homoproline]-L -isoleucine benzylamide]	900 nM	
CC[C@H](C)[C@H](NC(=O)[C@@H]1CCCN1C[C@H](CC(C)C)NC(=O)[C@@H](N)CC1CCCCC1)C(=O)OCc1ccccc1 [Example 13, 1-[1-[2-(S)-[[2-(S)-amino-3-cyclohexyl-1-oxopropyl]-amino]-4-methylpentyl]-L-proline]-L-isoleucine Phenylmethyl Ester]	< 6000 nM	1300 nM
COC(=O)[C@H](Cc1ccc(OC)cc1)N(C)C(=O)[C@@H]1CCCN1C[C@H](CC(C)C)NC(=O)OC(C)(C)C [Example 9, 1-Methyl-1-[1-[2-(S)-[[(1,1-dimethylethoxy)carbonyl]amino]-4-methylpentyl]-L-proline]-L-Tyrosine(O-Methyl)Methyl Ester]	16000 nM	> 50000 nM
CC[C@H](C)[C@H](NC(=O)[C@@H]1CCCN1CC(CC(C)C)NC(=O)OC(C)(C)C)C(=O)OCc1ccccc1 (stereo partly drawn) [Example 5, 1-[1-[2-[[(1,1-Dimethylethoxy)carbonyl]amino]-4-methylpentyl]-L-proline]-L- Isoleucine Phenylmethyl Ester]	27000 nM	3000 nM
CC[C@H](C)[C@H](NC(=O)[C@@H]1CCCCN1C[C@@H](NC(=O)C(C)(C)C)[C@@H](C)CC)C(=O)NCc1ccccc1 [Example 21, 1-[1-[2-(S)-[(2,2-Dimethyl-propionyl)-amino]-3-(S)-methylpentyl]-L-homoproline]-L-isoleucine benzylamide]	720 nM	
CC[C@H](C)[C@H](NC(=O)[C@@H]1CCCN1C[C@H](CC(C)C)NC(=O)[C@H](CC(N)=O)NC(=O)OC(C)(C)C)C(=O)OCc1ccccc1 [Example 10, 1-[1-[2-(S)-[[4-Amino-2-(S)-[[(1,1-dimethylethoxy)-carbonyl]amino]-1,4-dioxobutyl]amino]-4-methylpentyl]-L-proline]-L-isoleucine Phenylmethyl Ester]	30000 nM	900 nM
CC[C@H](C)[C@H](NC(=O)[C@@H]1CCCN1CC(CC(C)C)NC(=O)[C@H](CC1CCCCC1)NC(=O)OC(C)(C)C)C(=O)OCc1ccccc1 (stereo partly drawn) [Example 11, 1-[1-[2-[[3-Cyclohexyl-2-(S)-[[(1,1-dimethylethoxy)-carbonyl]amino]-1-oxopropyl]amino]-4-methylpentyl]-L-proline]-L-isoleucine Phenylmethyl Ester]	< 6000 nM	8400 nM
CC[C@H](C)[C@H](NC(=O)[C@@H]1CCCCN1C[C@@H](NC(=O)CC(C)(C)C)[C@@H](C)CC)C(=O)NCc1ccccc1 [Example 22, 1-[1-[2-(S)-[(3,3-dimethyl-butyryl)-amino]-3-(S)-methylpentyl]-L-homoproline]-L-isoleucine benzylamide]	1000 nM	
CC[C@H](C)[C@H](NC(=O)[C@@H]1CCCN1C[C@H](CC(C)C)NC(=O)[C@H](CC(N)=O)NC(=O)[C@@H](N)Cc1ccccc1)C(=O)OCc1ccccc1 [Example 15, 1-[1-[2-(S)-[[1-[2-(S)-Amino-1-Oxo-3-phenylpropyl]-L-asparaginyl]amino]-4-methylpentyl]-L-proline]-L-isoleucine Phenylmethyl Ester]		2500 nM
CCCC(=O)N[C@H](CN1CCCC[C@H]1C(=O)N[C@H](C(=O)NCc1ccccc1)[C@@H](C)CC)[C@@H](C)CC [Example 24]	1700 nM	
CC[C@H](C)[C@H](NC(=O)[C@@H]1CCCN1C[C@H](CC(C)C)NC(=O)[C@@H](N)CC(N)=O)C(=O)OCc1ccccc1 [Example 12]	< 6000 nM	2400 nM
